Source: US20260209274A1, “COMPOSITION FOR SKIN REPIGMENTATION” (BELLA AURORA LABS, S.A., priority 2022, published 2026)
Non-standard residues stand in square brackets, D forms with d. No end group written: not given here. Nle = CCCC[C@H](N)C(=O)O

Tests used:
[1] = tested on: reconstructed human pigmented epidermis (RHPE); assay: In vitro repigmentation assay in reconstructed human pigmented epidermis (RHPE), without irradiation; assay type: cell-based; settings: A 3.0 ppm
Experimental: (§1) For assessing the repigmentation effect, a reconstructed epidermis model was used, namely, based on adding melanocytes and keratinocytes on a polycarbonate filter (SkinEthic® RHPE, available from the company Episkin).
(§2) Sample tissues were treated with the test products for 6 days (from day1 to day6). After each dosing, the samples were incubated at 37° C., and melanin extraction was performed after 6 days of treatment (at day7). Untreated samples were also included in the assay as controls. An evaluation of cell viability was also performed.
(§3) After treatment, melanin extraction was performed by plunging each sample filter into 800 μl of Solvable® (Perkin Elmer) and heating at 63° C. overnight. The optical density of the supernatants was measured on 300 μl extract at 405 nm using synthetic melanin as reference. 6 samples were used for each treatment and the mean value was calculated.
(§4) For each of the treatments the increase in the amount of melanin generated versus the control (0) was calculated. For analysing a possible synergistic effect, the experimental increase in melanin in the combined treatment (A+B) was compared to the theoretical increase to be expected if a simple additive effect were obtained.
Another in vitro repigmentation assay was performed using the same reconstructed epidermis model and the same procedure as disclosed in Example 1. In this case, the assay was performed without irradiation.
In this example, the same reconstructed epidermis model was used, namely, based on adding melanocytes and keratinocytes on a polycarbonate filter (SkinEthic® RHPE, available from the company Episkin), using the same protocol disclosed in Example 1.

[2] = tested on: reconstructed human pigmented epidermis (RHPE); assay: In vitro repigmentation assay in reconstructed human pigmented epidermis (RHPE), samples irradiated; assay type: cell-based; settings: Example 1; irradiated with 150 J/m^2 at 300 W/m^2 on day2, day3, day4; A 3.0 ppm, B 0.4 ppm, A + B 1.5 ppm + 0.2 ppm (7.5:1)
Experimental: as §1, §2, §3
Another analogous assay, with the same treatments, was performed but simultaneously irradiating the samples. In this second assay, the samples were irradiated with 150 J/m^2 at 300 W/m^2 three times on consecutive days (on day2, day3, and day4 of the assay).
as §4

[3] = Example 1, without irradiation, 6 days of treatment, extraction at day7, B 0.4 ppm, A + B 1.5 ppm + 0.2 ppm (7.5:1) in culture medium
[4] = Example 1, without irradiation, 6 days of treatment, B 0.4 ppm, A + B 1.5 ppm + 0.2 ppm (7.5:1)
[5] = Example 3, C 0.1 ppm, A + C 1.5 ppm + 0.05 ppm (30:1)
[6] = Example 3, C 0.1 ppm, A + C 1.5 ppm + 0.05 ppm (30:1) in culture medium
[7] = Example 4, D 1.2 ppm, A + D 1.5 ppm + 0.6 ppm (2.5:1)
[8] = Example 4, D 1.2 ppm, A + D 1.5 ppm + 0.6 ppm (2.5:1) in culture medium

Substance | Melanin [1, 3] | Melanin increase vs. control [1, 4] | Melanin increase vs. control [1, 5] | Melanin [1, 6] | Melanin increase vs. control [1, 7] | Melanin [1, 8] | Melanin [2] | Melanin increase vs. control [2]
FHWRYPLPLPGQ (MIA inhibitor) | 34.39 µg | 1.29 µg | 0.11 µg | 36.63 µg | 1.33 µg | 33.34 µg | 36.07 µg | 1.35 µg
His-DPhe-Arg-Trp (H[dF]RW) [C] | – | – | 1.93 µg | 38.45 µg | – | – | – | –
Nle-Ala-His-DPhe-Arg-Trp (Ac-[Nle]AH[dF]RW) [B] | 37.31 µg | 4.21 µg | – | – | – | – | 38.07 µg | 3.35 µg
palmitoyl-prolil-proline [D] | – | – | – | – | 0.48 µg | 32.49 µg | – | –
